{"source": "patent US20040044060A1", "about": "“Fungicidal mixture” (priority 2001, published 2004)", "tested_on": "Plasmopara viticola", "assay": "Protective activity against peronospora of vines caused by Plasmopara viticola (potted vines, spray treatment)", "format": "in vivo", "conditions": "individual active compound, vine leaves cv. Müller-Thurgau, untreated 75% infection", "experimental": "The active compounds, separately or jointly, were formulated as a 10% emulsion in a mixture of 63% by weight of cyclohexanone and 27% by weight of emulsifier, and diluted with water to the desired concentration.\nEvaluation was carried out by determining the infected leaf areas in percent. These percentages were converted into efficacies. The efficacy (W) was calculated as follows using Abbot's formula: […]\nα corresponds to the fungal infection of the treated plants in % and β corresponds to the fungal infection of the untreated (control) plants in % An efficacy of 0 means that the infection level of the treated plants corresponds to that of the untreated control plants; an efficacy of 100 means that the treated plants were not infected.\nThe expected efficacies of the mixtures of the active compounds were determined using Colby's formula [R. S. Colby, Weeds 15, 20-22 (1967)] and compared with the observed efficacies.\nE=x+y−x·y/100 Colby's formula: […]\nE expected efficacy, expressed in % of the untreated control, when using the mixture of the active compounds A and B at the concentrations a and b x efficacy, expressed in % of the untreated control, when using active compound A at a concentration of a y efficacy, expressed in % of the untreated control, when using active compound B at a concentration of b.\nProtective Activity Against peronospora vines Caused by Plasmopara viticola Leaves of potted vines of the cultivar “Müller-Thurgau” were sprayed to runoff point with an aqueous preparation of active compound which had been prepared from a stock solution comprising 10% of active compound, 85% of cyclohexanone and 5% of emulsifier. The next day, the undersides of the leaves were inoculated with an aqueous zoospore suspension of Plasmopara viticola. The vines were then initially placed in a water-vapor-saturated chamber at 24° C. for 48 hours and then in a greenhouse at 20-30° C. for 5 days. […] The extent to which the infection had developed on the undersides of the leaves was then determined visually."}
{"molecule": "Cc1ccc(-c2c(Cl)nc(C#N)n2S(=O)(=O)N(C)C)cc1", "note": "[Ia, cyazofamid]", "values": [{"measurement": "Efficacy in % of the untreated control", "setting": "0.05 ppm in the spray liquor", "result": 47, "unit": "%"}, {"measurement": "Efficacy in % of the untreated control", "setting": "0.1 ppm in the spray liquor", "result": 73, "unit": "%"}, {"measurement": "Efficacy in % of the untreated control", "setting": "0.2 ppm in the spray liquor", "result": 87, "unit": "%"}]}
